Source: patent US6808875B2, “Methods for screening cellular proliferation using isotope labels” (priority 1997, dated 2004)

Key:
[1] = Plasma glucose enrichment during labeled glucose infusion in rats; assay type: in vivo
Experimental: Trimethylsilyl derivatives of nucleosides were synthesized by incubation of lyophilized hydrolysates with BSTFA:pyridine (4:1) at 100° C. for 1 hour. Samples were analyzed by GC-MS (DB-17 HT column, J&W Scientific, Folsom Calif.; HP 5890 GC and 5971MS, Hewlett Packard, Palo Alto, Calif.). Abundances of ions at mass to charge ratio (m/z) 467 and 469 were quantified under selected ion recording mode for deoxyadenosine (dA); and m/z 555 and 557 were monitored for deoxyguanosine (dG). Under the derivatization and GC-MS conditions employed, the purines (dA and dG) gave larger peaks (FIG. 3) than the pyrimidines, resulting in greater sensitivity and a higher signal-to-noise ratio. To measure the enrichment of glucose, plasma or culture media were deproteinized with perchloric acid and passed through anion and cation exchange columns (Neese et al., 1995, J. Biol. Chem. 270:14452-14463). The glucose penta-acetate derivative was formed by incubation with acetic anhydride in pyridine. GC-MS analysis was performed as described previously (Neese et al., 1995, J. Biol. Chem […]), monitoring m/z 331 and 333 under selected ion recording.
Four rats (approximately 250 g) were infused with labeled glucose. […] DNA was extracted from cell preparations, then hydrolyzed to nucleosides and analyzed by GC-MS (FIG. 2). […]

[2] = human, in vivo
Experimental: (§1) Trimethylsilyl derivatives of nucleosides were synthesized by incubation of lyophilized hydrolysates with BSTFA:pyridine (4:1) at 100° C. for 1 hour. Samples were analyzed by GC-MS (DB-17 HT column, J&W Scientific, Folsom Calif.; HP 5890 GC and 5971MS, Hewlett Packard, Palo Alto, Calif.). Abundances of ions at mass to charge ratio (m/z) 467 and 469 were quantified under selected ion recording mode for deoxyadenosine (dA); and m/z 555 and 557 were monitored for deoxyguanosine (dG). Under the derivatization and GC-MS conditions employed, the purines (dA and dG) gave larger peaks (FIG. 3) than the pyrimidines, resulting in greater sensitivity and a higher signal-to-noise ratio. […]
One subject was a healthy normal volunteer and the other three were HIV-seropositive men, who were participating in lymphocyte kinetic studies (blood CD4 T cell counts in the range 215-377/mm^3). […] Granulocyte DNA was extracted, hydrolyzed to nucleosides and analyzed by GC-MS, as described in Section 6.1.2, supra. […]
All were clinically stable at the time of investigation. […] Granulocytes were isolated and dA enrichment measured from DNA. […]
48-hr constant intravenous infusions of labeled glucose were performed to ensure a representative time sample of T cell kinetics. Enrichments of plasma glucose were measured every 12 hr during the infusion. […]

HIV-1 = details: Patient #6, previous protease inhibitor
[3] = test system: lymphocytic cell line, H9; experiment: Label incorporation into dA of DNA in cultured H9 cells (GC-MS, cell counting); assay type: cell-based; details: H9, unlabeled glycerol
Experimental: (§2) DNA was prepared from cells or tissues by phenol-chloroform-isoamyl alcohol extraction of cell suspensions or tissue homogenates. Yield and purity were confirmed by optical density. After heat denaturation, DNA was hydrolyzed enzymatically to deoxyribonucleosides by sequential digestion with nuclease P1, phosphodiesterase, and alkaline phosphatase, as described by Crain et al. (Crain, 1990, Methods Enzymol. 193:782-790). Nucleoside yield and purity were confirmed by HPLC using a C-18 column and water-methanol gradient (Shigenaga et al., 1994, Methods Enzymol. 234:16-33).
as §1, with “(dG).” for “(dG). Under the derivatization and GC-MS conditions employed, the purines (dA and dG) gave larger peaks (FIG. 3) than the pyrimidines, resulting in greater sensitivity and a higher signal-to-noise ratio.”
(§3) Two cell lines were used: a hepatocyte cell line, HepG2, and a lymphocytic cell line, H9, which is a CD4^+ T cell line. […] In both cases the number of cells present was measured by counting an aliquot on a Coulter ZM0901 cell counter. […]

[4] = test system: hepatocyte cell line, HepG2; experiment: Label incorporation into dA of DNA in cultured HepG2 cells (GC-MS, cell counting); assay type: cell-based; details: HepG2, unlabeled glycerol
Experimental: as §2
as §1, with “(dG).” for “(dG). Under the derivatization and GC-MS conditions employed, the purines (dA and dG) gave larger peaks (FIG. 3) than the pyrimidines, resulting in greater sensitivity and a higher signal-to-noise ratio.”
as §3

[2H]C([2H])(O)[C@H]1OC(O)[C@H](O)[C@@H](O)[C@@H]1O (stereo partly drawn) [[6,6-^2H2] glucose]
Mean glucose enrichment for the 24 hr infusion period ([1]; rat, in vivo): 9.2±0.6% | Plasma glucose enrichment at sacrifice ([1]; rats (n=4), iv infusion approximately 24 hours, fasting): 13.2±0.9% | Plasma enrichment after discontinuing the intravenous infusion, % of steady-state values [2]: < 10%

CC(C)(C)NC(=O)[C@@H]1CN(Cc2cccnc2)CCN1C[C@@H](O)C[C@@H](Cc1ccccc1)C(=O)N[C@H]1c2ccccc2C[C@H]1O [indinavir]
viral load at failure (HIV-1): 28,000

OCC(O)CO [unlabeled glycerol, glycerol]
Effect on labeling from 10% [6,6-^2H2] glucose [3]: did not affect labeling | Reduction of incorporation into dA from 10% [6,6-^2H2] glucose [4]: 7%
